{"source": "patent US20140141044A1", "about": "“Cord Colitis Syndrome Pathogen” (Dana-Farber Cancer Institute, Inc., priority 2012, published 2014)", "origin": "cited, not measured here", "system": "B. enterica", "conditions": "direct or inferred from related organisms"}
{"smiles": "Cc1ncc([N+](=O)[O-])n1CCO", "note": "[metronidazole]", "values": [{"measurement": "sensitivity of B. enterica", "result": "direct or inferred sensitivity"}]}
